Assay results published in a melting point compilation (Tetko et al.; mined from patent text by program, amines drawn as free bases though some values may be those of a salt).

melting point [°C]	SMILES
179 to 180	COc1cc(COc2nn(-c3ccccc3)cc2C=O)ccc1OCc1cn(-c2ccccn2)nc1C
103 to 105	CON=CCOc1ccccc1S(N)(=O)=O
> 300	O=C(O)c1ccc(CC2(Cc3ccc(C(=O)O)cc3)C(=O)N=C3C=CC=CN32)cc1
> 230	CSc1nn2c(N)cc(C3CC3)nc2c1S(=O)(=O)c1ccccc1
202 to 203	CC(C)(C)OC(=O)N[C@H]1COc2ccccc2NC1=O
145	FC(F)(F)c1cccc(N2CCN(c3ccc(I)nn3)CC2)c1
231 to 233	O=C1CCC(N2C(=O)c3cccc(NCc4cccnc4)c3C2=O)C(=O)N1 (stereo unspecified)
184 to 186	CCOC(=O)CNC(=O)c1oc2cc(-c3ccc(Cn4c(C)nc5ccccc54)cc3)ccc2c1C
148 to 151	CC1CCC(Oc2ccc(CC(=O)c3ccc4c(c3)CCC4)cc2)(C(=O)O)C1 (stereo unspecified)
227	Cc1nc2n(c(=O)c1CCN1CCC(c3c[nH]c4ccccc34)CC1)CCCS2
48 to 49	CCCCCCCCC=CCCCCCCCCCCCC(=O)NC
329 to 331	NC(=O)c1nc(-c2cccc(O)c2)nc2c1[nH]c(=O)n2-c1ccccc1Oc1ccccc1
98 to 100	COC(=O)CN(CCNC(=O)OC(C)(C)C)C(=O)Cc1cc2ccc(C)nc2[nH]c1=O
74 to 75	CC(C)N1CC(CCN2CCN(c3ccccc3)CC2)OC1=O (stereo unspecified)
117 to 119	O=C(NC(=O)C(c1ccccc1)c1ccccc1)OC1CCCCC1
107 to 108	O=C1NCCc2cc(F)ccc21
301	CCC=C1Cc2c(c(C)c(C)c3oc(C(=O)O)cc23)C1=O
194 to 196	O=CNCC(=O)c1cccc(Nc2ccc3ccccc3n2)c1
186 to 187	COc1cccc(-c2nc3n(n2)Cc2cc(OC)c(OC)cc2-3)c1
289 to 290	COc1cc(OC)cc(-c2nc3ccc(Nc4ccncc4)cc3c(=O)[nH]2)c1
69 to 72	O=Cc1ccc(OCc2ccc3ccccc3n2)cc1
149 to 150	COC(=O)N=C(NC(=O)OC)Nc1ccc(S(=O)CC(C)C)cc1NC(=O)CS(C)=O (stereo unspecified)
155	CC(=O)N1CCCc2ccc(S(=O)(=O)C[N+](=O)[O-])cc21
78 to 79	O=C1C(CCO)Oc2cc(F)ccc2N1Cc1cccc(F)c1 (stereo unspecified)
111	COC(=O)Cn1ccc2ccc(-c3nccc(-c4ccccc4)n3)cc21

melting point [°C]	SMILES
195 to 197	COc1ccc(C(=O)Nc2ccccc2)cc1NS(=O)(=O)c1cccc(C)c1
59 to 61	CC(COc1ccc(Oc2ccccc2)cc1)=NO
151 to 152	Cc1nnc(-c2ccc3occ(-c4cnn(Cc5ccccc5)c4)c3c2)o1
178	COc1cccc2oc(-c3ccc(F)cc3)cc(=O)c12
159 to 161	Cc1cccc2c1NC(C)c1nnnn1-2 (stereo unspecified)
204 to 205	Cc1oc(-c2ccccc2)nc1COc1ccc(Cn2cc(C(=O)O)c(-c3cccs3)n2)cc1
65 to 67	N#Cc1ccc(-c2ccc(Cl)cc2Cl)c(F)c1
78 to 80	COc1ccc(N2CCN(CCC3OCCc4cc([Si](C)(C)C)ccc43)CC2)cc1 (stereo unspecified)
206 to 210	CC(NC(=O)OCc1ccccc1)C(=O)N1CC(=O)N(CC(N)=O)C1(C)C (stereo unspecified)
109 to 110	CCOC(=O)C1=Cc2cc(Cl)c(Oc3ccc(CC)cc3)cc2OC1C(F)(F)F (stereo unspecified)
> 300	Clc1c(I)c(Cl)c(I)c(Cl)c1I
104 to 106	COC(=O)COc1ccc(-c2ccc(C(=O)O)cc2)cc1-c1ccc2c(c1)C(C)(C)CCC2(C)C
225	C#Cc1cc(Nc2ncnc3cnc(C)cc23)ccc1F
127 to 128	Cc1cc(C(C)(C)C)cc(C)c1SSc1c(C)cc(C(C)(C)C)cc1C
128	CNC(=O)N(OC)c1ccc(Oc2ccc3sncc3c2)c(Cl)c1
126 to 127	COc1cc(COc2nn(-c3ccccc3)cc2C=O)ccc1OCc1nc(-c2ccccc2)cn1C
153 to 156	CS(=O)(=O)c1ccc(-c2cnn(-c3ccc(F)c(Cl)c3)c(=O)c2Cc2ccc(F)cc2)cc1
157 to 159	CCOC(=O)c1c(C(=O)OC)c(O)c2cc(OC)c(OC)c(OC)c2c1-c1ccc(OC)c(OC)c1
112	CCOc1ccc(-n2nc(C(F)(F)F)nc2-c2ccc(S(C)(=O)=O)cc2)cc1
106	CC(=O)SCSCc1cn(C(c2ccccc2)(c2ccccc2)c2ccccc2)nn1
238 to 239	O=C(O)Cn1c(-c2ccccc2)c(Cc2nc3c(F)c(F)cc(F)c3s2)c2ccccc21
92	CCOc1cc(C(=O)OC)cc(OCC)c1N=Nc1ccccc1
244 to 245	N#Cc1cnc2cc3c(cc2c1Nc1ccc(F)c(Cl)c1)NCCO3
152 to 153	FC(F)(F)CNC(=S)NCC(F)(F)F
114 to 116	COC(=O)[C@@H]1CCCN1C(=O)c1cccc(O)c1[N+](=O)[O-]

melting point [°C]	SMILES
289 to 290	O=C(Cc1ccccc1)Nc1n[nH]c(-c2ccc(F)cc2)c1-c1ccncc1
180	NC(=Nc1ccc(N2CCNCC2)cc1)c1cccs1
210 to 211	Cn1c(-c2ccccc2)c(C2=CCC(C(=O)O)(C(=O)O)CC2)c2ccccc21
355 to 360	O=C1c2cc(Cl)c(Cl)cc2-c2cc(O)cc3cccc1c23
128 to 129	CC(C)OC(=O)C(C(N)=O)=C1SCS1
147 to 148	NCC(=O)N(N)c1ccc2ccccc2c1
244 to 247	CNS(=O)(=O)c1ccc2c(c1)S(=O)(=O)N=C1CCCN12
276 to 278	CC1(C)CCC(C)(C)c2cc(C3=NN(c4ccc(C(=O)O)cc4)CC3)ccc21
280 to 281	O=C(CCl)Nc1cccc2c1C(=O)c1c(NC(=O)CCl)cccc1C2=O
140 to 141	O=C1c2c(-c3ccccc3)noc2CCC1CN1CCOCC1 (stereo unspecified)
186	Cc1cnc(-c2cc(F)ccc2CNC(=O)c2nc3n(c(=O)c2OCc2ccccc2)CCOC3(C)C)o1
83 to 85	CN1C(=O)N(c2ccc(Cl)cc2)S[N+]1(C)[O-] (stereo unspecified)
85 to 89	O=C(Cl)c1ccc(Oc2ccc(Oc3ccccc3)cc2)cc1
94 to 95	COC(=O)COc1c(CCC(C)C)c(OC)cc(OC)c1C(=O)CCc1ccc(OC)c(O)c1
98 to 99	CC(C)C(=O)c1cc(O)c(O)c([N+](=O)[O-])c1
258 to 260	CC(C)OC(=O)c1cc2c(cn1)[nH]c1cccc(Cc3ccccc3Cl)c12
238 to 239	CC1C(=O)NC(c2ccc(NC(=O)CCl)cc2)c2ccccc21 (stereo unspecified)
166 to 167	COCCOC1c2ccn3c(Br)c(C)nc3c2N(C(C)=O)C(c2ccccc2)C1OC(=O)C(C)(C)C (stereo unspecified)
171 to 175	CSC1N=C(N)C=C(Cl)N1c1c([N+](=O)[O-])cc(C(F)(F)F)c(Cl)c1[N+](=O)[O-] (stereo unspecified)
114	CCC(CC)Nc1ccc2c(c1)N1CCCN=C1S2
315 to 317	CCn1cc(C(=O)O)c(=O)c2cc(C=NO)sc21
86 to 91	CCN(CC)CCCNc1ncc2cc(-c3c(C)cccc3C)c(NC(=O)NC(C)(C)C)nc2n1
149 to 150	Cc1cc(C#CCc2ccc3c(c2)C(C)(C)CCC3(C)C)ccc1C(=O)O
136 to 137	COc1ccc(CCNC(=O)C(=O)NO)cc1OC1CCCC1
149 to 150	CC(=O)NCC1CC1c1c(Cl)ccc2nn(C)cc12 (stereo unspecified)

melting point [°C]	SMILES
185	OCC1Cc2sccc2CN1C(=S)Nc1cccc2cnccc12 (racemic)
105 to 109	CNC(=S)Nc1ncc(Cl)cc1Cl
219 to 221	NS(=O)(=O)c1cc(C(=O)Nc2ccccc2)ccc1F
112 to 113	CC(C)(C)n1ncc(S)c(Cl)c1=O
193 to 195	O=C(O)c1cc(CCNS(=O)(=O)c2ccccc2)c2cccccc1-2
188 to 190	CCC(=O)Nc1c(C(=O)c2cc(Cl)ccn2)[nH]c2cc(Cl)ccc12
148 to 149	CC(C)c1cccc(C(C)C)c1NC(=O)N(Cc1ccccc1)[C@H]1CC[C@@H](c2ccccc2)CC1
42 to 44	OCc1ncccc1Cl
231 to 234	Nc1cccc2cc(C(=O)O)ccc12
172 to 173	CC(C)Cn1c(CNC(=O)OC(C)(C)C)c(-c2ccccc2)c2cc(/C=C/C(=O)O)ccc2c1=O
> 250	O=C1CCC(c2ccc(C3=NNC(=O)CC3)cc2)=NN1
207 to 209	Nc1ncnc2c1ncn2Cc1oc2ccc(F)cc2c(=O)c1-c1ccccc1
115 to 130	CCN(C)c1nsc(NC(=O)N(C)C)c1C#N
200 to 202	Cc1nonc1-n1cc(C(=O)O)c(=O)c2c(C)c(F)c(F)cc21
265 to 266	O=C(O)c1cccc(-c2nc(-c3ccc(Cl)cc3)cs2)c1
102 to 103	CCOC1=CCc2c(OC)ccc(OC)c2C1
181 to 183	CCn1ncc2c3c(NCc4ccc(OC)c(Cl)c4)nnc(-n4cnc(C(=O)NC)c4)c3cnc21
130 to 131	CN(C)CCNc1ccc(S(C)(=O)=O)cc1[N+](=O)[O-]
227 to 229	N#CC12COc3cc(Cl)ccc3C1=NN(C(=O)Nc1ccc(C(F)(F)F)cc1)C2 (stereo unspecified)
184 to 186	COc1cc2ncc(N[C@@H]3C[C@H]4CC[C@@H]3C4)nc2cc1OC
240 to 241	NC(=O)NC1CCC(=O)c2ccsc21 (stereo unspecified)
99.9 to 100	CNN(NC)C(=S)Oc1cc(C)ccc1C(=O)OC
174 to 175	CCOC(=O)c1[nH]c2cc(Cl)cc(Cl)c2c1N(Cc1ccccc1)C(=O)c1ccccc1
130 to 132	OC(c1nnn[nH]1)c1ccccc1Cl (racemic)
207 to 209	CS(=O)(=O)c1ccc(-c2cc(N)sc2-c2ccc(F)cc2)cc1

SMILES	melting point [°C]
O=S(=O)(F)c1ccccc1S(=O)(=O)F	130 to 131
